One data set concerns A375P cells. In words: Anti-proliferative activity on A375P cell line (MTT assay). Type of data set: cell-based. Conditions: A375P human melanoma cell line. The protocol: A375P cells were purchased from American Type Culture Collection (ATCC, Rockville, Md., US) and maintained in DMEM medium (Welgene, Daegu, Korea) supplemented with 10% FBS (Welgene) and 1% penicillin/streptomycin (Welgene) in a humidified atmosphere with 5% CO2 at 37° C. The A375P cells were taken from culture substrate with 0.05% trypsin-0.02% EDTA and plated at a density of 5×10^3 cells/well in 96 well plates and then incubated at 37° C. for 24 h in a humidified atmosphere with 5% CO2 prior to treatment of various concentration (three fold serial dilution, 12 points) of test compounds. The A357P cell viability was assessed by the conventional 3-(4,5-dimethylthiazol-2-yl)-2,5-diphenyltetrazolium bromide (MTT) reduction assay. MTT assays were carried out with CellTiter 96 (Promega) according to the manufacturer's instructions.
After 1 day, 0.5 μl the representative compounds of the examples were added thereto. The representative compounds of the examples were prepared by three fold serial dilution of 10 mM stock solution in DMSO, 12 point (final conc. DMSO 0.5%). Then, 15 μl dye was added in each well. After 2 h, 100 μl stop solution was added each well. After 24 h, absorbance was measured. The absorbance at 590 nm was recorded using EnVision2103 (PerkinElmer; Boston, Mass., US). The IC50 value was calculated using GraphPad Prism 4.0 software.

The next data set deals with B-Raf-V600E (Homo sapiens, UniProt P15056, V600E). In words: B-Raf kinase enzyme assay (MEK1/Erk2 cascade, MBP phosphorylation, 32P). Type of data set: biochemical. Conditions: read-out: b-raf-V600Ekinase inhibitory activity (IC50). The protocol: <1-1> Activation of MAP Kinase 2/Erk2 by B-raf
10 μl magnesium chloride/ATP solution (500 uM ATP, 75 mM magnesium chloride) was seeded in eppendorf tube. 2.5 μl B-Raf-V600E was seed (final conc. 1 ng) in eppendorf tube and treated with 1.6 μl deactivated MEK1 (final conc. 0.4 μg). The mixture was treated with 4 μl deactivated MAP kinase 2/Erk2 (final conc. 1.0 ug). And the mixture was treated with 1 μl example solution (10 mM) dissolved in dimethyl sulfoxide which was orderly diluted. Then, assay dilution buffer I (ADBI I) was added thereto (final vol. 38 μl) to make the final volume of 38 μl, and made it reacted at 30° C. for 30 min. 5 μl of resulting solution was used for the following experiment.
<1-2> Phosphorylation of Myelin basic protein (MBP)
5 μl of the above resulting solution was treated with 10 μl assay dilution buffer, and then treated with 10 μl Myelin basic protein (MBP, 2 mg/Ml). The mixture solution was treated with 10 μl of diluted (1/10) [γ^32P] ATP (100 uCi/vial) which is diluted at 30° C. for 10 min. 25 μl of the mixture solution was spotted onto a P81 paper, and the paper was washed four times with 0.75% phosphoric acid for 10 min and once with acetone for 5 min in scintillation vial. After 5 Ml of scintillation cocktail solution was added in the scintillation vial, signals were analyzed by scintillation counter.

A further data set deals with KDR (h) (Homo sapiens, UniProt P35968). In words: Kinase activity profiling service (Millipore). The data set is classed as biochemical. The conditions noted are these: read-out: Kinase inhibitory activity (IC50, uM) KDR (h). The text has this: (§1) Also, as mentioned above we tested kinase activities of the representative compounds of the examples using Kinase activity profiling service (Millipore UK Ltd Gemini Crescent, Dundee Technology Park, Dundee DD2 1SW, UK).

In the next data set the target is c-RAF (h) (Homo sapiens, UniProt P04049). Kind of data set: Kinase activity profiling service (Millipore). The data set is classed as biochemical. Conditions: read-out: Kinase inhibitory activity (IC50, uM) c-RAF (h).
Text: as §1

A further data set has as its target Fms (h) (Homo sapiens, UniProt P07333). In words: Kinase activity profiling service (Millipore). The data set is classed as biochemical. The conditions noted are these: read-out: Kinase inhibitory activity (IC50, uM) Fms (h).
Text: as §1

The target in the next data set is SAPK2a (h) (Homo sapiens, UniProt Q16539). In words: Kinase activity profiling service (Millipore). The conditions noted are these: read-out: Kinase inhibitory activity (IC50, uM) SAPK2a (h). Type of data set: biochemical.
Text: as §1

The next data set concerns the target Tie2 (h) (Homo sapiens, UniProt Q02763). Kind of data set: Kinase activity profiling service (Millipore). The conditions noted are these: read-out: Kinase inhibitory activity (IC50, uM) Tie2 (h). The data set is classed as biochemical.
Text: as §1

The target of a further data set is Ret (h) (Homo sapiens, UniProt P07949). In words: Kinase activity profiling service (Millipore). Type of data set: biochemical. Conditions: read-out: Kinase inhibitory activity (IC50, uM) Ret (h).
Text: as §1

Another data set relates to T3151-Bcr-Abl. The conditions noted are these: cited from earlier work.
For the next data set, the system named is A375 melanoma cell line. The conditions noted are these: raf-V660E overexpression cell strain; read-out: anti-proliferative activity IC50, A375 melanoma cell line; cited from earlier work.
The conditions of data set [1]: cited from earlier work.

Chain of B-Raf-V600E (P15056 whole entry V600E): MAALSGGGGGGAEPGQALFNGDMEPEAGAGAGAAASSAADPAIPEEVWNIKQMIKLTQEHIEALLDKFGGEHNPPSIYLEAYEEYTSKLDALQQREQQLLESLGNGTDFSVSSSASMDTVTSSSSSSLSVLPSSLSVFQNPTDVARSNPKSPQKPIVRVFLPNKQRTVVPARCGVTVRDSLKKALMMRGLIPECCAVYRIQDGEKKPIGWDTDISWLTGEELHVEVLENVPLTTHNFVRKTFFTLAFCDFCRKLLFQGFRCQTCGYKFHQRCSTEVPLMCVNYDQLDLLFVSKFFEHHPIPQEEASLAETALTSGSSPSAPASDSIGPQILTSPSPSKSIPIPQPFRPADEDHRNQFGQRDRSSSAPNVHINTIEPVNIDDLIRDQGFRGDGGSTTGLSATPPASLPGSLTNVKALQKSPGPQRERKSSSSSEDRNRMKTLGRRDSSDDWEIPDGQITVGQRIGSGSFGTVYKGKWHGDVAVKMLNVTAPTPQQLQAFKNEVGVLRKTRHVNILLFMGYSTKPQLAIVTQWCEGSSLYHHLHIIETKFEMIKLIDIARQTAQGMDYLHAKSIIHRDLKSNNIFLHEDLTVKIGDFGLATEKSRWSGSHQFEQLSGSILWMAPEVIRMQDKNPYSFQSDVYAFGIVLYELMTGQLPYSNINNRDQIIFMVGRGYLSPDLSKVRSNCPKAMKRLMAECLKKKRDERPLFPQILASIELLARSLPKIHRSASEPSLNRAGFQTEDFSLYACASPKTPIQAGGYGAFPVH
Chain of Ret (h) (P07949 29-1114): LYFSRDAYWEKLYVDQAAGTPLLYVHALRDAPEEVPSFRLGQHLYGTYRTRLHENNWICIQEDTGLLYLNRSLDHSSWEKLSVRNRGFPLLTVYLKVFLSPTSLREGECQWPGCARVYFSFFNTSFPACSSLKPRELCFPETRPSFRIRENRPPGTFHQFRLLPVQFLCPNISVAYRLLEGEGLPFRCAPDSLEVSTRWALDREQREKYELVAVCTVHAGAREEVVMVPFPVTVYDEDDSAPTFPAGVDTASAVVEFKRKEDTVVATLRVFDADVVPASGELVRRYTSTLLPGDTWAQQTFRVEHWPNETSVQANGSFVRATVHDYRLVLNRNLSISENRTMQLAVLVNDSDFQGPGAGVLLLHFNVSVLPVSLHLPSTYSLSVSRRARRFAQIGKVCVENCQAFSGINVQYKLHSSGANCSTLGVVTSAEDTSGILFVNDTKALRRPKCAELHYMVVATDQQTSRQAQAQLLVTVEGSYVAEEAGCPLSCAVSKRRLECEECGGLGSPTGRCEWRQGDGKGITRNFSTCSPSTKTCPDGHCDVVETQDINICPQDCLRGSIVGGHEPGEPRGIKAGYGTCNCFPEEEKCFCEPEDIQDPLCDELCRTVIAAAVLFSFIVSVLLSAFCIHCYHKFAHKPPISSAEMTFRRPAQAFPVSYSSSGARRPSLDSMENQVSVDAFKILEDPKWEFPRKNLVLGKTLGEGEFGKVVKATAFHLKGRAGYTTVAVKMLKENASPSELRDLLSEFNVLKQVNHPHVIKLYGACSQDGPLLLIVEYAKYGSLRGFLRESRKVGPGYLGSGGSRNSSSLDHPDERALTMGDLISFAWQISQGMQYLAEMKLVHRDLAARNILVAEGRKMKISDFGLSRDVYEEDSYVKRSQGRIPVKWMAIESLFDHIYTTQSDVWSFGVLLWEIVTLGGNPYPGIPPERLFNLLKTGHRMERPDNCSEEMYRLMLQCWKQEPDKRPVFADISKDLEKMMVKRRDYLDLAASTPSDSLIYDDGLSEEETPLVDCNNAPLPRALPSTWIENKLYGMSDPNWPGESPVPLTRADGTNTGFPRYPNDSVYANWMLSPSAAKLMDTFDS
Chain of Fms (h) (P07333 20-972): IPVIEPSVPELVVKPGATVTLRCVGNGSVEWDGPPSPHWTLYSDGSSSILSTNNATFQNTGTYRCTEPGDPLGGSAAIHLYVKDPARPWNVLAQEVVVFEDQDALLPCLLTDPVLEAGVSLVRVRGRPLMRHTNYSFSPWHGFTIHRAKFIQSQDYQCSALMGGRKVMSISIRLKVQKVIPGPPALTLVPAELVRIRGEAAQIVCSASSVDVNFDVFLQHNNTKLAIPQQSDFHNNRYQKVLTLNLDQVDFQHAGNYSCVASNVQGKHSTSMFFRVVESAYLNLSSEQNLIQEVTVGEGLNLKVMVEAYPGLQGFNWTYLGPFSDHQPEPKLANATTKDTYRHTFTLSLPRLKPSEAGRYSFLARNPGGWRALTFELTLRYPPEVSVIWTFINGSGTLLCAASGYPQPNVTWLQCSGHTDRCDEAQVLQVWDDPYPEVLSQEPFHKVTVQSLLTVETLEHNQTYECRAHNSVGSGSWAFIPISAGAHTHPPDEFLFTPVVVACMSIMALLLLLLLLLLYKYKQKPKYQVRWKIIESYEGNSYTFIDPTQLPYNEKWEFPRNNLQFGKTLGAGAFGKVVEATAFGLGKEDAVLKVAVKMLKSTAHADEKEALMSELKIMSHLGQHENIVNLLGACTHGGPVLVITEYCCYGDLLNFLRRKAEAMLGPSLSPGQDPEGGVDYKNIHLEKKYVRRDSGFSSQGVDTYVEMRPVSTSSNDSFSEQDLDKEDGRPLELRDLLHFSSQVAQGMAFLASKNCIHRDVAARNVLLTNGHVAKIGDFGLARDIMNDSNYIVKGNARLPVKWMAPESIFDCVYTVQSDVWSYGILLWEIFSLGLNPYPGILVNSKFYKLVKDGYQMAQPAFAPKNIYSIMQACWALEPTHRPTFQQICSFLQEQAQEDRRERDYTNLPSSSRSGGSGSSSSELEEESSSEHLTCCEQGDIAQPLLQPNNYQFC
Chain of SAPK2a (h) (Q16539 whole entry): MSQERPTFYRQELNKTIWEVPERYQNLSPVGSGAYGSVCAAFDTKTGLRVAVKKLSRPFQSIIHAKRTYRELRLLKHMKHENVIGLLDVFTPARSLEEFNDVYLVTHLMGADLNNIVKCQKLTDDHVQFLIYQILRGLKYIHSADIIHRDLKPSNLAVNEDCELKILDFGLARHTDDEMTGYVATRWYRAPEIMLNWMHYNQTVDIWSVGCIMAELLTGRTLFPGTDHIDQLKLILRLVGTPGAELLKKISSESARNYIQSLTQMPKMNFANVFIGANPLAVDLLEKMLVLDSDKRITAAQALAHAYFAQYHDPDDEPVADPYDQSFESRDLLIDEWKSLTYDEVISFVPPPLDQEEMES
Chain of Tie2 (h) (Q02763 23-1124): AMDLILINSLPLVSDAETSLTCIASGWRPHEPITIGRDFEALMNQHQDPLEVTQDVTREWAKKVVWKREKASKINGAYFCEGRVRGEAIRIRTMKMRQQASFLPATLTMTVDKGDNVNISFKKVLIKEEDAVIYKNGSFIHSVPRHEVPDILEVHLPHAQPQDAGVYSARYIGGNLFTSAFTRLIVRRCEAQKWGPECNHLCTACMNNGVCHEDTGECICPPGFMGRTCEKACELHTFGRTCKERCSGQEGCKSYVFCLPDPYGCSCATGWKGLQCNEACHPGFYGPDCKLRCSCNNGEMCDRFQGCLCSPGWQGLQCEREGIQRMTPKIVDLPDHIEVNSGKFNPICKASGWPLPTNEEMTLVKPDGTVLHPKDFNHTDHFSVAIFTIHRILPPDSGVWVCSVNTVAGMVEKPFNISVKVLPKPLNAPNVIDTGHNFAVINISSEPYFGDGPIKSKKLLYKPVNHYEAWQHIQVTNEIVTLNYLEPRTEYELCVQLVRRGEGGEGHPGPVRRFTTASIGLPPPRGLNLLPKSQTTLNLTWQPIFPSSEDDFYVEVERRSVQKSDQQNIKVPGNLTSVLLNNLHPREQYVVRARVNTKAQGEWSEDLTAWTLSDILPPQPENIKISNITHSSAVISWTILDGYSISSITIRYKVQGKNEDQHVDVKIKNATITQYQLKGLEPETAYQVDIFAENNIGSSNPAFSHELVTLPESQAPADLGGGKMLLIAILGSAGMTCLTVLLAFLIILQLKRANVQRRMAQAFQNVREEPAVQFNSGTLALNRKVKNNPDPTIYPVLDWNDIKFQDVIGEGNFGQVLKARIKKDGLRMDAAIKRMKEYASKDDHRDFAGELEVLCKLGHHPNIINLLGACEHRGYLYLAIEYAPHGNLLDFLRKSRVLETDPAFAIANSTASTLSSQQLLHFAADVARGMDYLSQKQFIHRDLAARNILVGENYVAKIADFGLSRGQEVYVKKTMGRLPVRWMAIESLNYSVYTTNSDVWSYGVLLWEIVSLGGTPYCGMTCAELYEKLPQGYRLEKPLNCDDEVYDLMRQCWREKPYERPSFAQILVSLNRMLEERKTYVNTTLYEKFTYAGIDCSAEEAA
Chain of c-RAF (h) (P04049 whole entry): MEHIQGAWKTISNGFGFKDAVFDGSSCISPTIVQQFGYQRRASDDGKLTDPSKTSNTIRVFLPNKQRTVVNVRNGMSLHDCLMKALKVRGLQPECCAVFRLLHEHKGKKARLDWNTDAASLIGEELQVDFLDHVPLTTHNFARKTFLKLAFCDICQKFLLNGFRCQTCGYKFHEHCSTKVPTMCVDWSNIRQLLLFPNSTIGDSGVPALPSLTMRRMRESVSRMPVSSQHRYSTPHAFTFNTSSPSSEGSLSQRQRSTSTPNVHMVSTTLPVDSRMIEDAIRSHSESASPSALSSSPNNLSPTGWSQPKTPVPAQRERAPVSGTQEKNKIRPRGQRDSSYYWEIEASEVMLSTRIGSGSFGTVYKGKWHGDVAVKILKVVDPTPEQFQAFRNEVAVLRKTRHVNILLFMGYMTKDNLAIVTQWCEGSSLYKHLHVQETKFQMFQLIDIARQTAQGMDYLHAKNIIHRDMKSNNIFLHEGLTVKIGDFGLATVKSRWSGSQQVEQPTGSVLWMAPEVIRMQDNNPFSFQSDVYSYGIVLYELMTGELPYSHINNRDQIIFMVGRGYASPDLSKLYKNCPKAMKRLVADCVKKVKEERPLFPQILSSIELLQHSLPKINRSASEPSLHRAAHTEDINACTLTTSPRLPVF

Turning to `O=C(Nc1cccc(-c2ccc3c(C(=O)NCCN4CCOCC4)n[nH]c3c2)c1)Nc1ccc(Cl)c(C(F)(F)F)c1` [Example 58, 6-(3-(3-(4-chloro-3-(trifluoromethyl)phenyl)ureido)phenyl)-N-(2-morpholinoethyl)-1H-indazole-3-carboxamide], the concentration for 50% growth inhibition (GI50) with A375P cells was under 10 µM. Moreover, the IC50 at B-Raf-V600E is under 10 µM.

As for `Cc1ccc(NC(=O)Nc2ccc(Cl)c(C(F)(F)F)c2)cc1-c1ccc2c(C(=O)NCCN3CCOCC3)n[nH]c2c1` [Example 64, 6-(5-(3-(4-chloro-3-(trifluoromethyl)phenyl)ureido)-2-methylphenyl)-N-(2-morpholinoethyl)-1H-indazole-3-carboxamide], the half-maximal inhibitory concentration (IC50) at KDR (h) was 332 µM; at c-RAF (h), 137 µM; at Fms (h), 141 µM; on SAPK2a (h) it was 167 µM; on Tie2 (h), 1510 µM; on Ret (h), 603 µM. Besides, the IC50 on B-Raf-V600E was under 10 µM. Besides, in the data set on A375P cells, the GI50 was under 10 µM.

In the data set with A375P cells, `O=C(Nc1cccc(-c2ccc3c(CO)n[nH]c3c2)c1)Nc1ccc(Cl)c(C(F)(F)F)c1` [Example 79, 1-(4-chloro-3-(trifluoromethyl)phenyl)-3-(3-(3-(hydroxymethyl)-1H-indazol-6-yl)phenyl)urea] showed a GI50 of under 10 µM. For the same compound, the IC50 on B-Raf-V600E was under 10 µM.

In the case of `Cc1cn(-c2cc(NC(=O)c3ccc(C)c(Nc4nccc(-c5cccnc5)n4)c3)cc(C(F)(F)F)c2)cn1` [Nilotinib], the “activity on T3151-Bcr-Abl” value in the data set with T3151-Bcr-Abl was “inactive”.

As to `CCCS(=O)(=O)Nc1ccc(F)c(C(=O)c2c[nH]c3ncc(Cl)cc23)c1F` [PLX-4720], the IC50 with A375 melanoma cell line was 0.5 µM.

`CNC(=O)c1cc(Oc2ccc(NC(=O)Nc3ccc(Cl)c(C(F)(F)F)c3)cc2)ccn1` [Sorafenib]: the “skin toxicity side effect, grade” value in data set [1] (600 mg twice a day) is 3. Further, the “MTD (maximum tolerated dose)” value in [1] (twice a day, phase II clinical investigation) was 400 mg.

The record behind these values is patent publication US8754209B2, “Indazole derivatives or pharmaceutically acceptable salts thereof as protein kinase inhibitors for proliferative diseases treatment, and a pharmaceutical composition containing the same as an active ingredient” (Korea Institute of Science and Technology, priority 2009, dated 2014).
